From PubChem BioAssay (NCI)
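Where inhibition never reached the appropriate level, the endpoint shown equals the highest concentration tested. Otherwise, values were interpolated linearly from a five-concentration, 48-hour dose response in 96-well plates. Abbreviation: GI50, concentration required for 50% inhibition of growth. At the TGI there is no net growth.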

Tests used:
Test in all cases: DTP human tumour cell line panel, 48 h
CAKI-1 renal = system: CAKI-1 renal
HL-60(TB) leukemia = system: HL-60(TB) leukemia
IGROV1 ovarian = system: IGROV1 ovarian
MALME-3M melanoma = system: MALME-3M melanoma
OVCAR-5 ovarian = system: OVCAR-5 ovarian
OVCAR-8 ovarian = system: OVCAR-8 ovarian
RXF 393 renal = system: RXF 393 renal
SK-MEL-5 melanoma = system: SK-MEL-5 melanoma
SW-620 colon = system: SW-620 colon
U251 CNS = system: U251 CNS

| SMILES | GI50 (CAKI-1 renal) | TGI (CAKI-1 renal) | GI50 (HL-60(TB) leukemia) | TGI (HL-60(TB) leukemia) | GI50 (IGROV1 ovarian) | TGI (IGROV1 ovarian) | GI50 (MALME-3M melanoma) | TGI (MALME-3M melanoma) | GI50 (OVCAR-5 ovarian) | TGI (OVCAR-5 ovarian) | GI50 (OVCAR-8 ovarian) | TGI (OVCAR-8 ovarian) | GI50 (RXF 393 renal) | TGI (RXF 393 renal) | GI50 (SK-MEL-5 melanoma) | TGI (SK-MEL-5 melanoma) | GI50 (SW-620 colon) | TGI (SW-620 colon) | GI50 (U251 CNS) | TGI (U251 CNS) |
| --- | --- | --- | --- | --- | --- | --- | --- | --- | --- | --- | --- | --- | --- | --- | --- | --- | --- | --- | --- | --- |
| COc1cc(/C=N/NC(=O)c2cnn3c2NC(c2ccccc2)C3)ccc1OC1CCCC1 (centres undefined) | 0.556 µM | 5.01 µM | 0.384 µM | 3.93 µM | 0.723 µM | 9.4 µM | 1.02 µM | 4.28 µM | 1.84 µM | 10.9 µM | 1.57 µM | 7.61 µM | 0.357 µM | 1.47 µM | 0.59 µM | 4.77 µM | 0.468 µM | 2.38 µM | 0.92 µM | 5.91 µM |
| C[C@@]1(F)[C@H](O)[C@@H](CO)O[C@H]1n1ccc(=O)[nH]c1=O | > 100 µM | > 100 µM | > 100 µM | > 100 µM | > 100 µM | > 100 µM | > 100 µM | > 100 µM | > 100 µM | > 100 µM | > 100 µM | > 100 µM | > 100 µM | > 100 µM | > 100 µM | > 100 µM | > 100 µM | > 100 µM | > 100 µM | > 100 µM |
| COc1ccc(-c2ccc(OC)c(OC)c2OC)cc1 | 1.77 µM | > 100 µM | 1.04 µM | 9.93 µM | 4.08 µM | > 100 µM | 9.53 µM | > 100 µM | 8.66 µM | > 100 µM | 6.9 µM | > 100 µM | 2.83 µM | > 100 µM | 2.68 µM | > 45.2 µM | 0.528 µM | > 100 µM | 2.01 µM | > 100 µM |
| COc1ccc2[nH]c(C(=O)N3CCN(C(=O)OCc4ccc5c(Cl)cc(Cl)c(O)c5n4)CC3)cc2c1 | 0.357 µM | 1.65 µM | 0.977 µM | 2.85 µM | 0.527 µM | 1.86 µM | 1.59 µM | 3.02 µM | 1.61 µM | 3.08 µM | 1.01 µM | 2.42 µM | 0.557 µM | 1.81 µM | 1.66 µM | 3.03 µM | 0.401 µM | 1.61 µM | 1.48 µM | 2.81 µM |
| CCCCCCCC(=O)OCC/C=C/C1OC1C1OC(=O)/C=C\C=C\C(=O)N(C(C)=O)C(=O)/C=C(/C)CCC2OC2C1OC(=O)NC(C)=O (centres undefined) | 15 µM | > 25 µM | 8.18 µM | > 25 µM | 3.21 µM | 8.28 µM | > 25 µM | > 25 µM | 4.88 µM | 11.5 µM | 3.64 µM | 16.6 µM | 4.34 µM | 9.45 µM | 7.03 µM | > 25 µM | 6.42 µM | 24 µM | 5.54 µM | 15 µM |
| O=C(c1ccccc1)C1N=NN(Cc2ccccc2[N+](=O)[O-])C1C(=O)c1ccccc1 (centres undefined) |  | > 100 µM |  | > 100 µM |  | > 100 µM |  | > 100 µM |  | > 100 µM |  | > 100 µM |  | > 100 µM |  | > 100 µM |  | > 100 µM |  | > 100 µM |
| Cc1cccc(C)c1NC(=O)C(=O)Cc1nc2ccccc2s1 |  | > 100 µM |  | > 100 µM |  | > 100 µM |  | > 100 µM |  | > 100 µM |  | > 100 µM |  | > 100 µM |  | > 100 µM |  | > 100 µM |  | > 100 µM |
| COc1ccc2c(c1)C(=O)c1c-2c(OCCCN(C)C)nc2cc(Br)ccc12 | 11 µM | 23.5 µM | 29.4 µM | > 100 µM |  | 26.9 µM | 1.87 µM | 4.64 µM | 1.71 µM | 3.59 µM | 2.63 µM | 6.95 µM | 1.7 µM | 3.4 µM | 15 µM | 28.3 µM | 5.2 µM | 20 µM | 2.1 µM | 4.22 µM |
| CCC[CH2][Sn-]([CH2]CCC)([CH2]CCC)[O]C(=O)C(C)C | 0.122 µM | 0.279 µM | 0.111 µM | 0.304 µM | 0.166 µM | 0.324 µM | 0.0229 µM | 0.204 µM | 0.107 µM | 0.262 µM | 0.129 µM | 0.255 µM | 0.107 µM | 0.237 µM | 0.157 µM | 0.291 µM | 0.124 µM | 0.272 µM | 0.144 µM | 0.294 µM |
| COC(=O)C1CC(c2ccc(OC)c(OC)c2)OC1=O (mixture of isomers) |  | > 100 µM |  | > 100 µM |  | > 100 µM |  | > 100 µM |  | > 100 µM |  | > 100 µM |  | > 100 µM |  | > 100 µM |  | > 100 µM |  | > 100 µM |
